Source: patent publication US10485235B2, “Aryloxypyrimidinyl ethers as herbicides” (FMC Corporation, priority 2015, dated 2019)

system: kochia (Kochia scoparia); test: Test A preemergence, kochia; type: in vivo; conditions: Bassia scoparia, pre-emergence, 240 h; Preemergence, 31 g ai/ha; 0 to 100 scale (0 no effect, 100 complete control); read-out: Plant response rating, Kochia
Method in brief: (§1)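 Plants grown in pots of loam blended with sand were treated either before emergence, via directed soil spray, or after emergence at the one- to two-leaf stage. Following about 10 days in the greenhouse, each treatment was visually compared with untreated controls and rated from 0 (no effect) to 100 (complete control).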

Compound	pest or weed control at 31 g/ha [%]
N#Cc1cccc(Oc2ncc(F)cn2)c1OCCCC(F)(F)F [Compound 4, 3-[(5-fluoro-2-pyrimidinyl)oxy]-2-(4,4,4-trifluorobutoxy)benzonitrile]	40

same assay, conditions: Bassia scoparia, pre-emergence, 240 h; Preemergence, 125 g ai/ha; 0 to 100 scale (0 no effect, 100 complete control); read-out: Plant response rating, Kochia

Compound	pest or weed control at 125 g/ha [%]
N#Cc1cccc(Oc2ncc(F)cn2)c1OCCCC(F)(F)F [Compound 4, 3-[(5-fluoro-2-pyrimidinyl)oxy]-2-(4,4,4-trifluorobutoxy)benzonitrile]	90

system: barnyardgrass (Echinochloa crus-galli); test: Test B flooded paddy test, barnyardgrass; type: in vivo; conditions: Echinochloa crus-galli; 250 g ai/ha, Flood; visual rating after 13 to 15 days; scale 0 to 100, 0 is no effect, 100 is complete control; read-out: Plant response rating, Barnyardgrass
Method in brief: (§2)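 Visual ratings, 0 = no effect to 100 = complete control, versus controls after 13 to 15 days in greenhouse. Test compounds were added to paddy water kept 3 cm over the soil surface, on plants at 2-leaf stage.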

Compound	pest or weed control at 250 g/ha [%]
N#Cc1cccc(Oc2ncc(F)cn2)c1OCCCC(F)(F)F [Compound 4, 3-[(5-fluoro-2-pyrimidinyl)oxy]-2-(4,4,4-trifluorobutoxy)benzonitrile]	50

system: ragweed (common ragweed, Ambrosia elatior); test: Test A postemergence, ragweed; type: in vivo; conditions: Ambrosia artemisiifolia, post-emergence, 240 h; 31 g ai/ha, postemergence; 0 to 100 scale, 0 is no effect, 100 is complete control; approximately 10 days; read-out: Plant response rating, Ragweed
Method in brief: as §1

Compound	pest or weed control at 31 g/ha [%]
N#Cc1cccc(Oc2ncc(F)cn2)c1OCCCC(F)(F)F [Compound 4, 3-[(5-fluoro-2-pyrimidinyl)oxy]-2-(4,4,4-trifluorobutoxy)benzonitrile]	0

same assay, conditions: Ambrosia artemisiifolia, post-emergence, 240 h; 125 g ai/ha, postemergence; 0 to 100 scale, 0 is no effect, 100 is complete control; approximately 10 days; read-out: Plant response rating, Ragweed

Compound	pest or weed control at 125 g/ha [%]
N#Cc1cccc(Oc2ncc(F)cn2)c1OCCCC(F)(F)F [Compound 4, 3-[(5-fluoro-2-pyrimidinyl)oxy]-2-(4,4,4-trifluorobutoxy)benzonitrile]	20

system: pigweed (Amaranthus retroflexus); test: Test A preemergence, pigweed; type: in vivo; conditions: Amaranthus retroflexus, pre-emergence, 240 h; Preemergence, 31 g ai/ha; 0 to 100 scale (0 no effect, 100 complete control); read-out: Plant response rating, Pigweed
Method in brief: as §1

Compound	pest or weed control at 31 g/ha [%]
N#Cc1cccc(Oc2ncc(F)cn2)c1OCCCC(F)(F)F [Compound 4, 3-[(5-fluoro-2-pyrimidinyl)oxy]-2-(4,4,4-trifluorobutoxy)benzonitrile]	90

same assay, conditions: Amaranthus retroflexus, pre-emergence, 240 h; Preemergence, 125 g ai/ha; 0 to 100 scale (0 no effect, 100 complete control); read-out: Plant response rating, Pigweed

Compound	pest or weed control at 125 g/ha [%]
N#Cc1cccc(Oc2ncc(F)cn2)c1OCCCC(F)(F)F [Compound 4, 3-[(5-fluoro-2-pyrimidinyl)oxy]-2-(4,4,4-trifluorobutoxy)benzonitrile]	100

system: pigweed (Amaranthus retroflexus); test: Test A postemergence, pigweed; type: in vivo; conditions: Amaranthus retroflexus, post-emergence, 240 h; 31 g ai/ha, postemergence; 0 to 100 scale, 0 is no effect, 100 is complete control; approximately 10 days; read-out: Plant response rating, Pigweed
Method in brief: as §1

Compound	pest or weed control at 31 g/ha [%]
N#Cc1cccc(Oc2ncc(F)cn2)c1OCCCC(F)(F)F [Compound 4, 3-[(5-fluoro-2-pyrimidinyl)oxy]-2-(4,4,4-trifluorobutoxy)benzonitrile]	100

same assay, conditions: Amaranthus retroflexus, post-emergence, 240 h; 125 g ai/ha, postemergence; 0 to 100 scale, 0 is no effect, 100 is complete control; approximately 10 days; read-out: Plant response rating, Pigweed

Compound	pest or weed control at 125 g/ha [%]
N#Cc1cccc(Oc2ncc(F)cn2)c1OCCCC(F)(F)F [Compound 4, 3-[(5-fluoro-2-pyrimidinyl)oxy]-2-(4,4,4-trifluorobutoxy)benzonitrile]	100

system: sedge, umbrella (small-flower umbrella sedge, Cyperus difformis); test: Test B flooded paddy test, umbrella sedge; type: in vivo; conditions: Cyperus difformis; 250 g ai/ha, Flood; visual rating after 13 to 15 days; scale 0 to 100, 0 is no effect, 100 is complete control; read-out: Plant response rating, Sedge, Umbrella
Method in brief: as §2

Compound	pest or weed control at 250 g/ha [%]
N#Cc1cccc(Oc2ncc(F)cn2)c1OCCCC(F)(F)F [Compound 4, 3-[(5-fluoro-2-pyrimidinyl)oxy]-2-(4,4,4-trifluorobutoxy)benzonitrile]	95

system: ragweed (common ragweed, Ambrosia elatior); test: Test A preemergence, ragweed; type: in vivo; conditions: Ambrosia artemisiifolia, pre-emergence, 240 h; Preemergence, 31 g ai/ha; 0 to 100 scale (0 no effect, 100 complete control); read-out: Plant response rating, Ragweed
Method in brief: as §1

Compound	pest or weed control at 31 g/ha [%]
N#Cc1cccc(Oc2ncc(F)cn2)c1OCCCC(F)(F)F [Compound 4, 3-[(5-fluoro-2-pyrimidinyl)oxy]-2-(4,4,4-trifluorobutoxy)benzonitrile]	10

same assay, conditions: Ambrosia artemisiifolia, pre-emergence, 240 h; Preemergence, 125 g ai/ha; 0 to 100 scale (0 no effect, 100 complete control); read-out: Plant response rating, Ragweed

Compound	pest or weed control at 125 g/ha [%]
N#Cc1cccc(Oc2ncc(F)cn2)c1OCCCC(F)(F)F [Compound 4, 3-[(5-fluoro-2-pyrimidinyl)oxy]-2-(4,4,4-trifluorobutoxy)benzonitrile]	30

system: barnyardgrass (Echinochloa crus-galli); test: Test A preemergence, barnyardgrass; type: in vivo; conditions: Echinochloa crus-galli, pre-emergence, 240 h; Preemergence, 31 g ai/ha; 0 to 100 scale (0 no effect, 100 complete control); read-out: Plant response rating, Barnyardgrass
Method in brief: as §1

Compound	pest or weed control at 31 g/ha [%]
N#Cc1cccc(Oc2ncc(F)cn2)c1OCCCC(F)(F)F [Compound 4, 3-[(5-fluoro-2-pyrimidinyl)oxy]-2-(4,4,4-trifluorobutoxy)benzonitrile]	60

same assay, conditions: Echinochloa crus-galli, pre-emergence, 240 h; Preemergence, 125 g ai/ha; 0 to 100 scale (0 no effect, 100 complete control); read-out: Plant response rating, Barnyardgrass

Compound	pest or weed control at 125 g/ha [%]
N#Cc1cccc(Oc2ncc(F)cn2)c1OCCCC(F)(F)F [Compound 4, 3-[(5-fluoro-2-pyrimidinyl)oxy]-2-(4,4,4-trifluorobutoxy)benzonitrile]	100

system: corn (Zea mays); test: Test A postemergence, corn; type: in vivo; conditions: Zea mays, post-emergence, 240 h; 31 g ai/ha, postemergence; 0 to 100 scale, 0 is no effect, 100 is complete control; approximately 10 days
Method in brief: as §1

Compound	Corn plant response rating (crop injury, 0 = no effect, 100 = complete kill) at 31 g/ha [%]
N#Cc1cccc(Oc2ncc(F)cn2)c1OCCCC(F)(F)F [Compound 4, 3-[(5-fluoro-2-pyrimidinyl)oxy]-2-(4,4,4-trifluorobutoxy)benzonitrile]	40

same assay, conditions: Zea mays, post-emergence, 240 h; 125 g ai/ha, postemergence; 0 to 100 scale, 0 is no effect, 100 is complete control; approximately 10 days

Compound	Corn plant response rating (crop injury, 0 = no effect, 100 = complete kill) at 125 g/ha [%]
N#Cc1cccc(Oc2ncc(F)cn2)c1OCCCC(F)(F)F [Compound 4, 3-[(5-fluoro-2-pyrimidinyl)oxy]-2-(4,4,4-trifluorobutoxy)benzonitrile]	90

system: foxtail, giant (giant foxtail, Setaria faberii); test: Test A preemergence, giant foxtail; type: in vivo; conditions: Setaria faberi, pre-emergence, 240 h; Preemergence, 31 g ai/ha; 0 to 100 scale (0 no effect, 100 complete control); read-out: Plant response rating, Foxtail, Giant
Method in brief: as §1

Compound	pest or weed control at 31 g/ha [%]
N#Cc1cccc(Oc2ncc(F)cn2)c1OCCCC(F)(F)F [Compound 4, 3-[(5-fluoro-2-pyrimidinyl)oxy]-2-(4,4,4-trifluorobutoxy)benzonitrile]	100

same assay, conditions: Setaria faberi, pre-emergence, 240 h; Preemergence, 125 g ai/ha; 0 to 100 scale (0 no effect, 100 complete control); read-out: Plant response rating, Foxtail, Giant

Compound	pest or weed control at 125 g/ha [%]
N#Cc1cccc(Oc2ncc(F)cn2)c1OCCCC(F)(F)F [Compound 4, 3-[(5-fluoro-2-pyrimidinyl)oxy]-2-(4,4,4-trifluorobutoxy)benzonitrile]	100

system: blackgrass (Alopecurus myosuroides); test: Test A postemergence, blackgrass; type: in vivo; conditions: Alopecurus myosuroides, post-emergence, 240 h; 31 g ai/ha, postemergence; 0 to 100 scale, 0 is no effect, 100 is complete control; approximately 10 days; read-out: Plant response rating, Blackgrass
Method in brief: as §1

Compound	pest or weed control at 31 g/ha [%]
N#Cc1cccc(Oc2ncc(F)cn2)c1OCCCC(F)(F)F [Compound 4, 3-[(5-fluoro-2-pyrimidinyl)oxy]-2-(4,4,4-trifluorobutoxy)benzonitrile]	40

same assay, conditions: Alopecurus myosuroides, post-emergence, 240 h; 125 g ai/ha, postemergence; 0 to 100 scale, 0 is no effect, 100 is complete control; approximately 10 days; read-out: Plant response rating, Blackgrass

Compound	pest or weed control at 125 g/ha [%]
N#Cc1cccc(Oc2ncc(F)cn2)c1OCCCC(F)(F)F [Compound 4, 3-[(5-fluoro-2-pyrimidinyl)oxy]-2-(4,4,4-trifluorobutoxy)benzonitrile]	90

system: ryegrass, Italian (Italian ryegrass, Lolium multiflorum); test: Test A preemergence, Italian ryegrass; type: in vivo; conditions: Lolium multiflorum, pre-emergence, 240 h; Preemergence, 31 g ai/ha; 0 to 100 scale (0 no effect, 100 complete control); read-out: Plant response rating, Ryegrass, Italian
Method in brief: as §1

Compound	pest or weed control at 31 g/ha [%]
N#Cc1cccc(Oc2ncc(F)cn2)c1OCCCC(F)(F)F [Compound 4, 3-[(5-fluoro-2-pyrimidinyl)oxy]-2-(4,4,4-trifluorobutoxy)benzonitrile]	10

same assay, conditions: Lolium multiflorum, pre-emergence, 240 h; Preemergence, 125 g ai/ha; 0 to 100 scale (0 no effect, 100 complete control); read-out: Plant response rating, Ryegrass, Italian

Compound	pest or weed control at 125 g/ha [%]
N#Cc1cccc(Oc2ncc(F)cn2)c1OCCCC(F)(F)F [Compound 4, 3-[(5-fluoro-2-pyrimidinyl)oxy]-2-(4,4,4-trifluorobutoxy)benzonitrile]	60

system: rice (Oryza sativa); test: Test B flooded paddy test, rice; type: in vivo; conditions: Oryza sativa; 250 g ai/ha, Flood; visual rating after 13 to 15 days; scale 0 to 100, 0 is no effect, 100 is complete control; read-out: Plant response rating, Rice
Method in brief: as §2

Compound	plant injury at 250 g/ha [%]
N#Cc1cccc(Oc2ncc(F)cn2)c1OCCCC(F)(F)F [Compound 4, 3-[(5-fluoro-2-pyrimidinyl)oxy]-2-(4,4,4-trifluorobutoxy)benzonitrile]	30

system: ducksalad (Heteranthera limosa); test: Test B flooded paddy test, ducksalad; type: in vivo; conditions: Heteranthera limosa; 250 g ai/ha, Flood; visual rating after 13 to 15 days; scale 0 to 100, 0 is no effect, 100 is complete control; read-out: Plant response rating, Ducksalad
Method in brief: as §2

Compound	pest or weed control at 250 g/ha [%]
N#Cc1cccc(Oc2ncc(F)cn2)c1OCCCC(F)(F)F [Compound 4, 3-[(5-fluoro-2-pyrimidinyl)oxy]-2-(4,4,4-trifluorobutoxy)benzonitrile]	90

system: wheat (Triticum aestivum); test: Test A postemergence, wheat; type: in vivo; conditions: Triticum aestivum, post-emergence, 240 h; 31 g ai/ha, postemergence; 0 to 100 scale, 0 is no effect, 100 is complete control; approximately 10 days; read-out: Plant response rating, Wheat
Method in brief: as §1

Compound	plant injury at 31 g/ha [%]
N#Cc1cccc(Oc2ncc(F)cn2)c1OCCCC(F)(F)F [Compound 4, 3-[(5-fluoro-2-pyrimidinyl)oxy]-2-(4,4,4-trifluorobutoxy)benzonitrile]	20

same assay, conditions: Triticum aestivum, post-emergence, 240 h; 125 g ai/ha, postemergence; 0 to 100 scale, 0 is no effect, 100 is complete control; approximately 10 days; read-out: Plant response rating, Wheat

Compound	plant injury at 125 g/ha [%]
N#Cc1cccc(Oc2ncc(F)cn2)c1OCCCC(F)(F)F [Compound 4, 3-[(5-fluoro-2-pyrimidinyl)oxy]-2-(4,4,4-trifluorobutoxy)benzonitrile]	20
